PMC7922534, “Searching for Peptide Inhibitors of T Regulatory Cell Activity by Targeting Specific Domains of FOXP3 Transcription Factor” (Biomedicines, 2021)

Tests used:
Foxp3–NFAT interaction = experiment: Co-immunoprecipitation and Western blot of Flag-Foxp3 and HA-NFAT in HEK293 cells; assay type: cell-based; conditions: HEK293 cells transfected with Flag-Foxp3 and HA-NFAT, peptide 100 μM; Figure 7
Experimental: HEK293 cells were cultured in Dulbecco modified Eagle medium (Invitrogen) supplemented with 8% heat-inactivated fetal calf serum (FCS), penicillin, and streptomycin (Invitrogen) at 37 °C and 5% CO2. Plasmids cells were grown to 50% confluence in 6-well plates (Nunc) and transfected with a mixture of 2 μg of DNA plasmids (1 μg of FLAG-FOXP3 (expressing Foxp3 linked to the DYKDDDDK peptide tag and 1 μg of HA-NFAT expressing NFAT linked to the […] peptide tag), kindly provided by Dr Paul, Coffer, Utrech, The Netherlands)) and 8 μL PEI (polyethylenimine) overnight; the next day, cells were treated with 393–403 L, 397–406 C, or an irrelevant peptide at 100 μM. Twenty four hour later, HEK 293 cells were lysed in NP40 lysis buffer (0.05 M Tris-HCl pH 7.5, 0.5% Nonidet P40, 0.15 M NaCl, 0.01 M EDTA) containing a HALT^TM protease inhibitor cocktail (ThermoScientific), and immunoprecipitation was performed utilizing anti-FLAG coupled beads (Sigma) during 2 h at 4 C. Beads were washed 3x in lysis buffer, boiled, and samples were separated by SDS-PAGE, electrophoretically transferred to polyvinylidene difluoride membrane (Millipore, Bedford, MA), and hybridized with antibodies as indicated. Immunocomplexes were detected using enhanced chemiluminescence (Biorad).

[1] = system: murine CD4+CD25+ Treg cells; experiment: In vitro Treg inhibition: anti-CD3 stimulated effector T cells co-cultured with Treg cells, tritiated thymidine incorporation; assay type: cell-based, mouse; conditions: peptide 50 μM, BALB/c Teff 10^5 + Treg 10^4 cells/well, 3 days, tritiated thymidine
Experimental: (§1) In vitro assays were carried out using (i) the Karpas 299 human cell line (ACC-31, DSMZ, Germany), derived from a human lymphoma with a regulatory T cell profile or (ii) using natural Treg cells isolated from the murine splenocytes. To evaluate the effect of peptides on the immunosuppressive activity of the Karpas 299 cell line, a “mixed lymphocyte reaction” (MLR) assay was carried out using peripheral blood mononuclear cells (PBMCs) from two donors (previously tested to induce a strong MLR reaction in co-culture) (1 × 10^5 cells/well per each PBMC) in the presence or absence of Karpas 299 (1 × 10^4 cells/well). Peptides were added at 50 μM to the co-cultures to evaluate their capacity to restore the production of interferon-gamma (IFN-γ) inhibited by Karpas 299. After 48 hours, the supernatants were extracted to measure interferon-gamma (IFN-γ) by means of a commercial ELISA (Pharmingen, San Diego, CA, US). In vitro assays for Treg inhibition using natural Treg cells: Murine CD4+CD25+ (Treg cells), and CD4+CD25-T-cells (effector T cells) were purified from murine spleen cells by using a murine regulatory T-cell isolation kit (Miltenyi Biotec, Bergisch Gladbach, Germany) according to the manufacturer’s instructions. The purity of the resulting T-cell populations was confirmed to be >95% by flow cytometry. Inhibition of murine T regulatory cell function was measured in an in vitro assay of T-cell stimulation. Effector T cells (10^5 cells/well) from BALB/c mice were stimulated in vitro with 2, 5 μg/mL of anti-mouse CD3 antibody (Pharmingen) in the presence/absence of purified Treg cells (10^4 cells/well) and the indicated peptides (50 μM). T-cell proliferation was measured 3 days later as previously described. Percentage of Treg inhibition was calculated using the following formula: % inhibition= 100*((cpm of Teff&Treg co-cultures in the presence of peptide - cpm of Teff&Treg co-cultures)/(cpm of Teff - cpm of Teff&Treg co-cultures)). The Institutional Review Board on Human Subjects (Clínica Universidad de Navarra, Ref 2016.118) approved this research, and informed consent was obtained from all blood donors.

T-cells = conditions: cited from earlier work
Description: We focused on a peptide encompassing aminoacids 393–403, which correspond to a region implicated in FOXP/NFAT interaction, which is also key for Treg suppressive activity. FOXP3/NFAT interaction can regulate NFAT activity by (i) competing for binding to DNA [60, 61], (ii) by sequestering NFAT or other NFAT partners, or (iii) by forming a cooperative complex. The cooperative complex between FOXP3 and NFAT is required to repress the expression of the cytokine IL2, upregulate the expression of the Treg markers CTLA4 and CD25, and confer suppressor function. ...

[2] = cited from earlier work
Description: (§2) We have also focused on the screening campaign of peptides derived from the FOXP3 FKH domain (Section 3.3). Although we identified several peptides encompassing the intermediate region of FKH with high capacity to bind to FOXP3, we focused on peptide […]-407, based on its ability to inhibit Treg activity in vitro.

hepatocellular carcinoma = conditions: murine model of hepatocellular carcinoma; cited from earlier work
Description: as §2

FOXP3:NFAT = conditions: cited from earlier work
Description: as §2

FOXP3/AML1 [3] = experiment: FOXP3/AML1 interaction by Alphascreen; assay type: binding; conditions: Figure 3C
Experimental: (§3) The screening of peptide binders to FOXP3 was performed by surface plasmon resonance (SPR) using a ProteOn XPR36 (Bio-Rad, Hercules CA, USA) optical biosensor. Recombinant protein FOXP3-6His produced and purified from E-coli was immobilized covalently onto a GLC sensor chip (Bio-Rad) using the coupling reagents sulfo-NHS (N-Hydroxysulfosuccinimide) and EDC (1-Ethyl-3-(3-dimethylaminopropyl) carbodiimide, (Bio-Rad) as previously described. Peptide solutions (10 μM) were injected by triplicate in running buffer (phosphate-buffered saline, 0.005% (v/v) Tween 20, pH 7.4) at a flow of 30 μL/min. The interspot signal (obtained in the chip surface not immobilized with protein) was used as reference. FOXP3/NFAT1 and FOXP3/AML1 interactions were analyzed by Alphascreen technology as previously described according to the manufacturer’s protocol (Perkin Elmer, Benelux). Reactions were performed in a 40 μL final volume in 96-well Optiwell microtiter plates (Perkin Elmer). […] FOXP3/AML1 interaction was measured following a similar protocol using FOXP3-GST and AML1-His proteins. Exposure of the reaction to direct light was avoided as much as possible, and the emission of light from the acceptor beads was measured in the EnVision plate reader after the indicated incubation period (Perkin Elmer, Benelux).

FOXP3/NFAT1 = experiment: FOXP3/NFAT interaction by Alphascreen; assay type: binding; conditions: alpha screen; Figure 6C
Experimental: as §3

FOXP3 homodimerization [4] = experiment: FOXP3 dimerization by Alphascreen; assay type: binding; conditions: alpha screen
4T1-FOXP3 cells = experiment: Proliferation of 4T1-Ctrl and 4T1-FOXP3 tumor cells in vitro; assay type: cell-based; conditions: peptide 50 μM, Figure 2C
Experimental: The cell line 4T1-FOXP3 expressing FOXP3 was generated. 4T1-WT cells were transfected with empty pcDNA3.1 or with pcDNA3.1 FOXP3, expressing FOXP3 gene and neomycin (which confers resistance to G418 antibiotic) to generate 4T1-Ctrl and 4T1-Foxp3 cells. Briefly, 8 × 10^5 cells were seeded in 6-well culture plates one day prior to transfection. The cultures were 60–80% confluent at the time of transfection. Cells were transfected with 5 ug plasmid DNA per well for 6 hours using lipofectimine 2000 transfection reagent (Invitrogen). After 48 hours, 0.3 mg/mL of G418 drug (GIBCO) was added to the culture during 14 days for the selection of resistant cells. These cells were used in vitro to measure the effect of peptides to overcome the proliferative capacity inhibited by FOXP3. In addition, 4T1-FOXP3 and 4T1-Ctrl cells were injected in vivo (10^5 cells/ mouse) subcutaneously or intravenously to compare their capacity to induce tumors and lung metastases. Murine Lewis lung carcinoma expressing OVA, LLCOVA were kindly provided by Dr. Daniel Ajona (CIMA). The murine colon adenocarcinoma cell line MC38, LLOOVA, 4T1-Ctrl, and 4T1-FOXP3 were cultured in mouse medium (RPMI 1640, 10% fetal calf serum (Sigma), 100 U/mL penicillin, 100 μg/mL streptomycin (Invitrogene), […] Gentamicin (Gibco), 2 mM L-Glutamine (Lifetechnologies), […] β-mercaptoethanol (Sigma), and fungizone (GIBCO). All cell lines were cultured at 37 °C in a humidified atmosphere with 6.5% CO2.

FOXP3 homodimerization [5] = conditions: cited from earlier work
Description: (§4) A P60 peptide optimization program including alanine scanning, the introduction of D-aminoacids, or head-to-tail cyclization allowed us to improve its stability and efficacy in vitro and in vivo [23].

FOXP3/AML1 [6] = conditions: cited from earlier work
Description: as §4

[7] = cited from earlier work; remark: listed apart in the source
Experimental: (§5) The P60 peptide was able to improve the antitumor effect of other immunotherapeutic approaches constituting a potential candidate drug to inhibit Treg activity. An alanine scanning was conducted to identify key positions within the P60 sequence for FOXP3 binding P60. The introduct ...

Treg = conditions: cited from earlier work
Experimental: as §5

FOXP3 = conditions: cited from earlier work
Experimental: as §5

[8] = system: Karpas 299 human cell line; experiment: Mixed lymphocyte reaction with Karpas 299 Treg cell line, IFN-γ by ELISA; assay type: cell-based; conditions: MLR of PBMCs from two donors + Karpas 299, peptide 50 μM, 48 h
Experimental: as §1

Substance: KCFVRVESEKG [F393–403, truncated version of peptide F393–407]
- interaction between Foxp3 and NFAT by co-immunoprecipitation (Foxp3–NFAT interaction): able to reduce significantly the interaction
- Treg inhibitory capacity in vitro (proliferation of effector T cells with anti-CD3 in presence of Treg) [1]: able to inhibit Treg activity in vitro
- T-cell proliferation and cytokine production in response to TCR stimulation (T-cells): enhanced T-cell proliferation and the production of cytokines IL-2, IFN-γ, or IL-17
- pharmacokinetics in vivo [2]: poor pharmacokinetics in vivo
- antitumor activity of in vivo peptide administration (hepatocellular carcinoma): had antitumor activity
- FOXP3:NFAT interaction (FOXP3:NFAT): able to inhibit FOXP3:NFAT interaction

Substance: SLFAVRRHLWGSHGN [F304–318]
- Treg inhibitory capacity in vitro (proliferation of effector T cells with anti-CD3 in presence of Treg) [1]: able to inhibit Treg activity
- disruption of FOXP3/AML1 heterodimerization (FOXP3/AML1 [3]): able to impair FOXP3/AML1 heterodimerization

Substance: 397–406 C: macrocycle consisting of a head-to-tail cyclization of peptide 397–406 (RVESEKGAVW; head-to-tail (backbone) cyclization)
- interaction between Foxp3 and NFAT by co-immunoprecipitation (Foxp3–NFAT interaction): able to reduce significantly the interaction
- Treg inhibitory capacity in vitro (proliferation of effector T cells with anti-CD3 in presence of Treg) [1]: improved the Treg inhibitory capacity
- disruption of FOXP3-NFAT heterodimerization (FOXP3/NFAT1): retained the activity to impair Foxp3/NFAT interaction

Substance: KEKLSAMQAHLAGKM [p250–265, 15-mer peptide from the leuzin zipper domain of FOXP3]
- Treg inhibitory capacity in vitro (proliferation of effector T cells with anti-CD3 in presence of Treg) [1]: able to fully restore the proliferative capacity of effector T-cells
- inhibitory activity on FOXP3 homodimerization (FOXP3 homodimerization [4]): could not demonstrate an inhibitory activity

Substance: RDFQSFRKMWPFFAM [p60]
- effect on tumor-suppressor activity of FOXP3 (proliferation of 4T1-FOXP3 versus 4T1-Ctrl cells) (4T1-FOXP3 cells): does not alter the antitumor activity of FOXP3
- FOXP3 dimerization (FOXP3 homodimerization [5]): impairing FOXP3 dimerization
- FOXP3/AML1 interaction (FOXP3/AML1 [6]): impairing
- ability to enter into the cells [7]: able to enter into the cells
- Treg activity in vitro and in vivo (Treg): inhibit Treg activity in vitro and in vivo
- FOXP3 nuclear translocation (FOXP3): impair FOXP3 nuclear translocation
- Treg inhibitory capacity (Karpas MLR assays) [8]: potential Treg inhibitory capacity
